These results are taken from patent US8575175B2, “Therapeutic agent for chronic renal failure” (Toray Industries, Inc., priority 2008, dated 2013).

Data set [1] is described as follows: Plasma level of Compound 1 and bioavailability after administration of Compound 1 and Compound 2 to rats. It counts as in vivo. As to conditions: rat, 5 mg/kg oral vs Compound 1 1 mg/kg intravenous, Compound 1 measured in plasma, corrected for molecular weight, mean ± SE, n=3. The protocol:
Compound 1 or Compound 2 was orally administered to rats in an amount of 5 mg/kg, and Compound 1 was intravenously administered in an amount of 1 mg/kg, after which the concentration of Compound 1 in plasma was measured. The experiment was carried out with n=3 in each of the both groups. […] Thus, it was shown that Compound 2 can be used in a manner similar to Compound 1. Compound 1 and Compound 2 used in this experiment was synthesized in accordance with the method described in Patent Document 4.

Data set [2] deals with ADP-induced rat platelet aggregation. In words: Platelet aggregation inhibition action in rat (ADP-induced aggregation after oral administration). It counts as in vivo. As to conditions: stimulation with 10 μM ADP; oral: sodium salt of Compound 1 30 mg/kg (blood at 1 hour), beraprost sodium 0.3 mg/kg (0.5 hour); n=6. The protocol:
To determine the dose with which the PGI2-receptor agonistic activity is equivalent between the sodium salt of Compound 1 and beraprost sodium, the platelet aggregation inhibition action which is the major pharmacological action of PGI2-receptor agonists was used as an index for comparison. The sodium salt of Compound 1 (30 mg/kg) or beraprost sodium (0.3 mg/kg) was orally administered to rats fasted for 1 day, and blood was collected therefrom at the time when the plasma level of each compound became maximum, that is, 1 hour after the administration of the sodium salt of Compound 1 (Non-patent Document: J Pharmacol Exp Ther 322:1181-1188 2007) or 0.5 hour after the administration of beraprost sodium (Non-patent Document: Xenobiotic Metabolism and Disposition 6:713-725 1989), followed by measuring ADP-induced rat platelet aggregation. In the both groups, the experiment was carried out with n=6. The sodium salt of Compound 1, which was one of the PGI2-receptor agonists used herein, was synthesized by treating a carboxylic acid with sodium hydroxide, which carboxylic acid was synthesized according to the method described in Patent Document 4.

Data set [3] deals with rats suffering from chronic renal failure. As to the kind of experiment: Pharmacological effect in rats suffering from chronic renal failure: renal function, hematocrit, hemoglobin. It counts as in vivo, WKY rats. To be noted: for Hematocrit value / Hemoglobin content: oral twice a day from week 2. The protocol:
Rabbit anti-rat glomerular basement membrane antiserum (14-fold diluted, 3 mL/kg) was intravenously injected to WKY rats of 8 weeks old, to induce glomerulonephritis. […] Further, creatinine clearance, which is used as an alternative to glomerular filtration rate (GFR), was 2.63±0.07 mL/min. (N=3) in the normal group, and 1.22±0.04 mL/min. (N=21) in the nephritis-induced group. That is, creatinine clearance in the nephritis-induced group decreased to not more than 50% with respect to that of the normal group, and therefore it was confirmed that the nephritis-induced group developed chronic renal failure whose primary disease was glomerulonephritis. Thus, the time of establishment of the chronic renal failure was defined as 2 weeks after the induction of nephritis. […] This stage was the phase in which introduction of dialysis is considered in human, and corresponded to the most serious phase in chronic renal failure in the conservative stage.
Thus, 2 weeks after the induction of nephritis, based on the serum creatinine value, the rats suffering from chronic renal failure were grouped into the normal group (with neither induction of nephritis nor administration, n=4), the control group (administration of only a vehicle, n=7), the group to be treated with the sodium salt of Compound 1 (administration of 30 mg/kg twice a day, n=7) and the group to be treated with beraprost sodium (administration of 0.3 mg/kg twice a day, n=7), after which oral administration of the drugs were begun, followed by daily administration thereof. As the vehicle for the drugs, 0.25% sodium carboxymethylcellulose solution was used.
From 2 weeks after the induction of nephritis when the chronic renal failure was established, until 6 weeks after the induction of nephritis, urine collection and blood collection were carried out as appropriate, and the serum creatinine value, BUN and creatinine clearance were measured for each group to evaluate renal function. Further, the hematocrit, the hemoglobin content, and the SOD activity of the renal tissue, which are closely linked to the diseased state of chronic renal failure, were measured, and the expression level of mRNA of an organic anion transporter OAT-3 was quantified. The SOD activity was measured with the SOD assay kit WST (Dojindo Laboratories), and the expression level of mRNA of OAT-3 was quantified using LightCycler FastStart DNA Master SYBR Green I (Roche).
Six weeks after the induction of nephritis when the chronic renal failure in the conservative stage progressed to a serious phase in the control group, a statistical analysis was carried out. In terms of statistical difference, homoscedasticity was tested by the Bartlett's test between the control group and the respective drug-administered groups. In homoscedastic cases, the parametric Dunnett's test was carried out between the respective drug-administered groups and the control group, while in heteroscedastic cases, the nonparametric Dunnett's test was carried out therebetween, using a significance level of less than 5%.

For data set [4], the system named is SOD. In words: SOD activity in the renal tissue of rats suffering from chronic renal failure. To be noted: 6 weeks after induction of nephritis, oral twice a day from week 2, mean ± SE, n=7. The format is in vivo, WKY rats. How it is done: (§1) Rabbit anti-rat glomerular basement membrane antiserum (14-fold diluted, 3 mL/kg) was intravenously injected to WKY rats of 8 weeks old, to induce glomerulonephritis. […] Further, creatinine clearance, which is used as an alternative to glomerular filtration rate (GFR), was 2.63±0.07 mL/min. (N=3) in the normal group, and 1.22±0.04 mL/min. (N=21) in the nephritis-induced group. That is, creatinine clearance in the nephritis-induced group decreased to not more than 50% with respect to that of the normal group, and therefore it was confirmed that the nephritis-induced group developed chronic renal failure whose primary disease was glomerulonephritis. Thus, the time of establishment of the chronic renal failure was defined as 2 weeks after the induction of nephritis. […]
(§2) From 2 weeks after the induction of nephritis when the chronic renal failure was established, until 6 weeks after the induction of nephritis, urine collection and blood collection were carried out as appropriate, and the serum creatinine value, BUN and creatinine clearance were measured for each group to evaluate renal function. Further, the hematocrit, the hemoglobin content, and the SOD activity of the renal tissue, which are closely linked to the diseased state of chronic renal failure, were measured, and the expression level of mRNA of an organic anion transporter OAT-3 was quantified. […]

Data set [5] relates to OAT-3. As to the kind of experiment: Expression level of mRNA of OAT-3 in the renal cortex of rats suffering from chronic renal failure. It counts as in vivo, WKY rats. To be noted: 6 weeks after induction of nephritis, oral twice a day from week 2, mean ± SE, n=7, normal group 1.00 ± 0.06. The protocol:
as §1, §2

The conditions of data set [6]: after oral administration to rats; from cited literature; cited from earlier work.
The mark [7] stands for this setting: 6 weeks after induction of nephritis, oral twice a day from week 2 (Compound 1 Na salt 30 mg/kg, beraprost sodium 0.3 mg/kg), mean ± SE, n=7.
Setting [8] is: 6 weeks after induction of nephritis, mean ± SE, n=7.
The mark [9] stands for this setting: until 6 weeks after the induction of nephritis, 30 mg/kg oral twice a day.

SMILES strings stand for the structures. Where a name gives a salt, the structure may show the parent alone.

In the case of `CC(C)N(CCCCOCC(=O)O)c1cnc(-c2ccccc2)c(-c2ccccc2)n1` [Compound 1], in data set [1], the bioavailability came to 43.3 ± 2.6%.

For `CC(C)N(CCCCOCC(=O)O)c1cnc(-c2ccccc2)c(-c2ccccc2)n1` [Sodium salt of Compound 1], the “rate of suppression of rat platelet aggregation” value in data set [2] turned out to be 47.0±7.9%. In addition, the Creatinine clearance in data set [3] (2 weeks after induction of nephritis, at the beginning of the administration (baseline of the treated group)) was determined as 1.21 ± 0.06 mL/min. In data set [3] (setting [7]), the BUN is 26.8 ± 2.49 mg/dL, the Creatinine clearance was 1.48 ± 0.11 mL/min and the Serum creatinine value was found to be 0.47 ± 0.04 mg/dL. The Creatinine clearance in data set [3] (6 weeks after induction of nephritis, oral twice a day from week 2 (Compound 1 Na salt 30 mg/kg, beraprost sodium 0.3 mg/kg), mean ± SE, n=7, listed as sodium salt of Compound 1) was 1.48 ± 0.11 mL/min. In data set [3] (setting [8]), this compound came in with a Hematocrit value of 37.1 ± 0.71 % and a Hemoglobin content of 13.7 ± 0.28 g/dL. For the same compound, in data set [3] (setting [9]), the “BUN, course compared to control group (FIG. 2)” value was “kept low compared to that in the control group”; the “creatinine clearance, course compared to control group (FIG. 3)” value is on record as “kept high compared to that in the control group”; the “serum creatinine value, course compared to control group (FIG. 1)” value is reported as “kept low compared to that in the control group”. Also, the “SOD activity (%, taking the activity in the normal group as 100%)” value in data set [4] turned out to be 83.6 ± 2.52 %. The “Expression level of mRNA of OAT-3 (ratio to that of GAPD)” value in data set [5] turned out to be 0.42 ± 0.05. Also, the “time when the plasma level became maximum” value in data set [6] is 1 h.

For `CC#CCC(C)[C@H](O)/C=C/[C@@H]1[C@H]2c3cccc(CCCC(=O)O)c3O[C@H]2C[C@H]1O` (mixture of isomers) [Beraprost sodium, reference compound], in data set [2], the “rate of suppression of rat platelet aggregation” value was determined as 64.2±8.3%. Besides, in data set [3] (setting [7]), the BUN came out at 42.1 ± 6.41 mg/dL, the Creatinine clearance is 0.77 ± 0.13 mL/min and the Serum creatinine value was 0.85 ± 0.12 mg/dL. Moreover, in data set [3] (setting [8]), the Hematocrit value is on record as 33.9 ± 0.97% and the Hemoglobin content is reported as 12.3 ± 0.28 g/dL. Moreover, the “SOD activity (%, taking the activity in the normal group as 100%)” value in data set [4] was found to be 67.9 ± 5.45%. Also, in data set [5], the “Expression level of mRNA of OAT-3 (ratio to that of GAPD)” value is on record as 0.24 ± 0.04. For the same compound, the “time when the plasma level became maximum” value in data set [6] is 0.5 h.
